Assay results from patent US10550143B2, “C,O-spiro aryl glycoside compounds, preparation therefor and use thereof” (SHANGHAI INSTITUTE OF MATERIA MEDICA, CHINESE ACADEMY OF …, priority 2015, dated 2020).

What was measured:
SD rats = assay: Acute single administration, urinary glucose changes in SD rats; type: in vivo, rat; parameters: Urine glucose concentration / The total amount of glucose excreted: unit not given here; settings: 1 mg/kg oral, after 24 h
Method: (1) Acutely Administering Compound to Observed the Urinary Glucose Changes in SD Rats
Thirty-eight male normal SD rats were selected and randomly divided into 5 groups according to body weight and blood glucose, 6-8 in each group. […] After oral gavage, the rats were placed in rats metabolic cages, and urine was collected after 24 h, and the urine volume was recorded, the urine sugar concentration was determined, and urinary sugar content was calculated according to the following formula. Urine content=urinary sugar concentration×urine volume
Glucose levels in urine are measured by the glucose assay kit.
Data were expressed as mean±standard deviation (x±s), and Student's t test was used for statistical analysis of the data, p<0.05 was considered statistically significant.

db/db mice = assay: Chronic administration, random blood glucose in db/db mice; type: in vivo, mouse; settings: for random blood glucose Pre: before administration; for Hypoglycemic rate % week 1 / Hypoglycemic rate % week 2 / Hypoglycemic rate % week 3 / Hypoglycemic rate % week 4: random blood glucose
Method: Oral gavage administrated, daily dose volume was 10 mL/kg, administered once daily. Administration time was 9: 00-10:00 daily, and the administration period was 5 weeks.
The random blood glucose of mice in the normal control group, model control group, test substance administration group and positive control group were determined on the 7th, 14th, 21st, 28th day (9: 00-10:00) every week after the first administration, and food was removed and after 6 hours of starvation, the fasting blood glucose in each group was measured. Free drinking during the hunger process. The rate of decrease of blood glucose was calculated according to the following formula: Average hypoglycemic rate %=(Blood glucose of model control group−Blood glucose of administration group)/Model control group×100%

[1] = Pharmacokinetics in rats after intragastric and intravenous administration; type: in vivo, rat
Method: Six healthy rats were randomly divided into two groups, three for each group. A28 was administered orally and intravenously, and the drug was grounded and dissolved in 0.5% MC. Fasted for 8 h before testing.
Three rats were intravenously administrated with 2 mg/kg of test compound A28, and 3 rats were orally administered with 10 mg/kg of test compound A28. Blood was collected from the orbital venous plexus of rats before administration, at 15 min, 30 min, 1 hour, 2 hours, 4 hours, 8 hours, 24 hours after administration, respectively. Blood sample were taken from three rats at each time point for each dose, and the plasma was immediately centrifuged.

hSGLT1 = target: T1, hSGLT1 (Homo sapiens, UniProt P13866); assay: In vitro SGLT1 inhibition (hSGLT1 IC50 test); type: cell-based; settings: read-out: IC50 ± SD SGLT1
T1 sequence (P13866 1-664): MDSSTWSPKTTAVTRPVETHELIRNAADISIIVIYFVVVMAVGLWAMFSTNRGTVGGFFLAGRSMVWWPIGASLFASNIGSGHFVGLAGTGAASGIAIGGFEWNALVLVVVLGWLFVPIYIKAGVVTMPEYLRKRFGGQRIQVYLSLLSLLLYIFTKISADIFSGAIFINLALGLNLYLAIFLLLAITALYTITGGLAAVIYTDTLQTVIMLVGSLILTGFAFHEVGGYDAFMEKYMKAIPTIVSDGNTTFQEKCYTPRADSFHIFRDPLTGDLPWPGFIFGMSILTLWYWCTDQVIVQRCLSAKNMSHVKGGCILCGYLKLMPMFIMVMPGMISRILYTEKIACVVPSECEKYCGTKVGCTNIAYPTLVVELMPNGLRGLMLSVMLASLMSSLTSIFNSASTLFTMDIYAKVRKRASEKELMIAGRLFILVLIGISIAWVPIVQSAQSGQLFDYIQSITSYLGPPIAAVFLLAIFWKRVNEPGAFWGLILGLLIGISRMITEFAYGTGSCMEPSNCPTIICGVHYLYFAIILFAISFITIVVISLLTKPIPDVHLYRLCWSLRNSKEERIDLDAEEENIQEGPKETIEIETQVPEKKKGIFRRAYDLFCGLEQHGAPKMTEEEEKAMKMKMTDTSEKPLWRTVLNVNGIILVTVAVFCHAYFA

[2] = rat, plasma, po, gavage 10 mg/kg

AUC(0-t) ([1]; rat, plasma, intravenous, vein 2 mg/kg): 252 ng·h/mL | AUC(0-inf) ([1]; rat, plasma, iv, vein 2 mg/kg): 252 ng·h/mL | Cmax ([1]; rat, plasma, iv, vein 2 mg/kg): 201 ng/mL | MRT ([1]; rat, plasma, iv, vein 2 mg/kg): 0.982 h | Tmax ([1]; rat, plasma, iv, vein 2 mg/kg): 0.25 h | half-life ([1]; rat, plasma, iv, vein 2 mg/kg): 1.53 h | bioavailability ([1]; rat, plasma, oral, gavage 10 mg/kg vs vein 2 mg/kg, dose normalized, read-out: F (absolute bioavailability)): 107% | AUC(0-inf) [1, 2]: 1350 ng·h/mL | AUC(0-t) [1, 2]: 1350 ng·h/mL | Cmax [1, 2]: 273 ng/mL | MRT [1, 2]: 3.79 h | Tmax [1, 2]: 1.67 h | half-life [1, 2]: 1.69 h | CLz ([1]; vein 2 mg/kg): 134 mL/min/kg | IC50 (hSGLT1): 2.06 ± 0.21 µM
Structure (SMILES): CCc1ccc(Cc2cc3c(cc2Cl)CO[C@]32O[C@H](C)[C@@H](O)[C@H](O)[C@H]2O)s1 [Example A28, (1S,3′R,4′S,5′S,6′R)-6′-methyl-6-((5-ethylthienyl)-2-methyl)-5-chloro-3′,4′,5′,6′-tetrahydro-3H-spiro[isobenzofuran-1,2′-pyran]-3′,4′,5′-triol]
The total amount of glucose excreted (SD rats; Table 3): 337.10 ± 313.7 | Urine glucose concentration (SD rats; Table 3): 76.29 ± 71.20 | Urine volume (SD rats; Table 3, in mL): 24 ± 6.63 | random blood glucose week 1 (db/db mice; 0.3 mg/kg once daily oral): 16.9 ± 1.3 mmol/L | random blood glucose week 2 (db/db mice; 0.3 mg/kg once daily oral): 15.7 ± 1.3 mmol/L | random blood glucose week 3 (db/db mice; 0.3 mg/kg once daily oral): 16.7 ± 1.5 mmol/L | random blood glucose week 4 (db/db mice; 0.3 mg/kg once daily oral): 19.1 ± 1.6 mmol/L | random blood glucose Pre (db/db mice; 0.3 mg/kg once daily oral): 17.9 ± 1.4 mmol/L | random blood glucose week 1 (db/db mice; 1 mg/kg once daily oral): 16.1 ± 1.0 mmol/L | random blood glucose week 2 (db/db mice; 1 mg/kg once daily oral): 16.3 ± 1.2 mmol/L | random blood glucose week 3 (db/db mice; 1 mg/kg once daily oral): 15.9 ± 1.1 mmol/L | random blood glucose week 4 (db/db mice; 1 mg/kg once daily oral): 15.1 ± 1.4 mmol/L | random blood glucose Pre (db/db mice; 1 mg/kg once daily oral): 16.8 ± 1.2 mmol/L | random blood glucose week 1 (db/db mice; 3 mg/kg once daily oral): 14.7 ± 0.9 mmol/L | random blood glucose week 2 (db/db mice; 3 mg/kg once daily oral): 13.0 ± 0.8 mmol/L | random blood glucose week 3 (db/db mice; 3 mg/kg once daily oral): 12.4 ± 1.0 mmol/L | random blood glucose week 4 (db/db mice; 3 mg/kg once daily oral): 13.2 ± 0.9 mmol/L | random blood glucose Pre (db/db mice; 3 mg/kg once daily oral): 18.7 ± 1.2 mmol/L | random blood glucose week 1 (db/db mice; 10 mg/kg once daily oral): 12.9 ± 0.6 mmol/L | random blood glucose week 2 (db/db mice; 10 mg/kg once daily oral): 10.6 ± 0.5 mmol/L | random blood glucose week 3 (db/db mice; 10 mg/kg once daily oral): 9.1 ± 0.4 mmol/L | random blood glucose week 4 (db/db mice; 10 mg/kg once daily oral): 9.7 ± 0.7 mmol/L | random blood glucose Pre (db/db mice; 10 mg/kg once daily oral): 18.3 ± 1.6 mmol/L | Hypoglycemic rate % week 1 (db/db mice; 0.3 mg/kg once daily oral): 14.0% | Hypoglycemic rate % week 2 (db/db mice; 0.3 mg/kg once daily oral): 19.1% | Hypoglycemic rate % week 3 (db/db mice; 0.3 mg/kg once daily oral): 18.0% | Hypoglycemic rate % week 4 (db/db mice; 0.3 mg/kg once daily oral): 7.8% | Hypoglycemic rate % week 1 (db/db mice; 1 mg/kg once daily oral): 17.9% | Hypoglycemic rate % week 2 (db/db mice; 1 mg/kg once daily oral): 16.0% | Hypoglycemic rate % week 3 (db/db mice; 1 mg/kg once daily oral): 21.8% | Hypoglycemic rate % week 4 (db/db mice; 1 mg/kg once daily oral): 27.0% | Hypoglycemic rate % week 1 (db/db mice; 3 mg/kg once daily oral): 25.4% | Hypoglycemic rate % week 2 (db/db mice; 3 mg/kg once daily oral): 33.1% | Hypoglycemic rate % week 3 (db/db mice; 3 mg/kg once daily oral): 39.0% | Hypoglycemic rate % week 4 (db/db mice; 3 mg/kg once daily oral): 36.6% | Hypoglycemic rate % week 1 (db/db mice; 10 mg/kg once daily oral): 34.3% | Hypoglycemic rate % week 2 (db/db mice; 10 mg/kg once daily oral): 45.3% | Hypoglycemic rate % week 3 (db/db mice; 10 mg/kg once daily oral): 55.3% | Hypoglycemic rate % week 4 (db/db mice; 10 mg/kg once daily oral): 53.1%
